From patent US20170071880A1, “SELEGILINE TRANSDERMAL SYSTEM” (KAT Transdermals LLC, priority 2012, published 2017)

Assay: Solubility of selegiline in pressure sensitive adhesive polymers
Type: physicochemical
From the text: The invention pertains to the transdermal delivery of selegiline for the treatment of depression, Parkinson's disease and other neurologic conditions. […] Acrylic pressure sensitive adhesives (PSAs) that could be used with the invention include those based on pure acrylate monomers as well as acrylate copolymers and terpolymers using for example as the comonomers vinyl acetate or hydrocarbon copolymers which may also include pacifiers and other pressure sensitive adhesive modifiers. Commercially available acrylate copolymers include those made by Henkel Corporation under the trade names of Duro-Tak 87-900A (DT 87-900A), 87-901A, 87-9301, 87-9088, and 87-4098. […] Of specific interest is the pressure sensitive adhesive DT 87-4098 which is the only copolymer mentioned above that contains vinyl acetate and which has low levels of peel, shear and tack which can then be enhanced by the incorporation of large amounts of plasticizing liquids such as selegiline. Since these polymers are not crosslinked, the resistance of movement of the drug through the patch itself will be very low thus enhancing the permeability through human skin. Thus it is an object of our invention to use non-crosslinked acrylate copolymer PSAs in matrix selegiline patches, especially PSA DT 87-4098, to provide for excellent permeation of selegiline through human skin. Another object of our invention is to use humectant/solubilizers in the matrix patch to provide for stabilization of the patch through absorption and immobilization of the liquids in the patch. For example such humectant/solubilizers include PVP, PVP/VA, hydroxypropylcellulose, hydroxyethylcellulose, hydroxypropylmethylcellulose, methyl cellulose, Sodium carboxymethyl cellulose, colloidal silica, Xantham Gum, and polyacrylic acid. By experiment we determined that the best humectant/solubilizer for matrix patches delivering selegiline is PVP/VA. PVP/VA has the ability to properly disperse/solubilize within the PSA matrix and to provide additional stability to the matrix, absorb the liquid selegiline base and prevent syneresis. In prior art, PVP was specifically excluded from the use in selegiline patches, which in our case, where we use non crosslinked acrylic PSAs, are shown to be very important to the development of a patch of our invention. It is another object of our invention to incorporate in the matrix PSA humectant/solubilizers, and especially PVP/VA, in the amounts of between 3 to 30% on the weight of the PSA, to provide for better syneresis, adhesion to skin and more rapid permeation of the drug through the skin. The ability of the composition of our patch is such that volatile and non-volatile enhancers can be included in the formulations, which are specifically excluded in the prior art Volatile enhancers for the case of our invention are liquids that have a vapor pressure at 20 degrees Centigrade which is higher than 0.2 mm Hg. Volatile enhancers such as Dimethylsulfoxide (DMSO), decylmethylsulfoxide lactates such as ethyl lactate and propyl lactate isobutyl lactate and lauryl lactate can be incorporated in the PSA matrix system of the selegiline patch of our invention. Thus it is another object of our invention to incorporate volatile enhancers in our patch so as to increase the permeation of selegiline through the human skin and reduce the size of the patch. […]

## C#CCN(C)[C@H](C)Cc1ccccc1 [selegiline]
In non-crosslinked acrylic copolymer PSA DT 87-4098
  solubility of selegiline in PSA: 59 wt %
In non-crosslinked acrylic copolymer PSA DT 87-9088
  solubility of selegiline in PSA: 118 wt %
In non-crosslinked acrylic copolymer PSA DT 87-9301
  solubility of selegiline in PSA: 81 wt %
In polyisobutylene (PIB) PSA
  solubility of selegiline in PSA: 8 wt %
In silicone PSA
  solubility of selegiline in PSA: 6 wt %
